# Publication PMC10254170, “Diastereoselective Synthesis of the Borylated D-Galactose Monosaccharide 3-Boronic-3-Deoxy-D-Galactose and Biological Evaluation in Glycosidase Inhibition and in Cancer for Boron Neutron Capture Therapy (BNCT)” (Molecules, 2023)
# Read-outs that look alike come from different tables or passages of the source.
# Columns and labels:
# Jack bean α-mannosidase = biological target: T1, Jack bean α-mannosidase (Canavalia ensiformis, UniProt C0HJB3); experiment: Glycosidase inhibition, Jack bean α-mannosidase; assay type: biochemical
# T1 construct: purchased Sigma-Aldrich Co
# T1 sequence (C0HJB3 1-981): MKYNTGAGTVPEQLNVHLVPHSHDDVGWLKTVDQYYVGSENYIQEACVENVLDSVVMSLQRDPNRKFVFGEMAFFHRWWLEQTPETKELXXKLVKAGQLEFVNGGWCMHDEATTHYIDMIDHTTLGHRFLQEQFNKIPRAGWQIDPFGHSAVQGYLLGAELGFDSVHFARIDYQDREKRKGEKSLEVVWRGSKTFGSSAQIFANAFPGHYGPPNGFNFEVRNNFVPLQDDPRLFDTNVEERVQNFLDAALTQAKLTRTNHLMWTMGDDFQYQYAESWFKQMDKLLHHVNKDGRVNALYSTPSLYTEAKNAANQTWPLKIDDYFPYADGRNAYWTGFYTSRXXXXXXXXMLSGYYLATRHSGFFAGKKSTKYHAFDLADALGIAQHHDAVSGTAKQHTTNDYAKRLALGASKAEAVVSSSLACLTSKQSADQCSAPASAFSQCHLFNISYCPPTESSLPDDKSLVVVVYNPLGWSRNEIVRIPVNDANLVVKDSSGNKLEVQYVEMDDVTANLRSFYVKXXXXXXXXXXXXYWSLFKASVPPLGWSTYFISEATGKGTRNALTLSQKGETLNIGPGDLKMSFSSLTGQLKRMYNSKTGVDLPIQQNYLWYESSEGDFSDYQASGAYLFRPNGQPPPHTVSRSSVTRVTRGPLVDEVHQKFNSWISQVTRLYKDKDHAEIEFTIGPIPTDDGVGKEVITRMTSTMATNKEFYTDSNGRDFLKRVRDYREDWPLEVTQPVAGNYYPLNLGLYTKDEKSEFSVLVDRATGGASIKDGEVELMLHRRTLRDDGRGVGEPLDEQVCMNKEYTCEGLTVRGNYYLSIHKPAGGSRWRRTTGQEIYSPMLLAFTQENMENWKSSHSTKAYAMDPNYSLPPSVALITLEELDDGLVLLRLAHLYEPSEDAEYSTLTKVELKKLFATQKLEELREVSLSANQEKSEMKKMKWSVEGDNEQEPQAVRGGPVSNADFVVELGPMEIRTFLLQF
# Excerpt: Glycosidase modulation studies need to explore selectivity as well as potency. Our drugs and controls are therefore screened against a panel of glycosidases in methanol (Table 1) to identify the glycosidase-related disease area(s), selectivity profile, and potency of biological action for each drug. The presence of organic boron covalently bonded to the drug structure also grants a reduced toxicity profile. Following the glycosidase inhibition range recommendations, an IC50 value >250 μm denotes weak inhibition, 100–249 μm denotes moderate inhibition, 10–99 μm good inhibition, 0.1–9 μm potent inhibition, and <0.1 μm very potent inhibition. […] Our boronated D-galactose 7 represents a novel lead in glycosidase inhibition.
# The glycosidases screened are the following: rice α-glucosidase, yeast α-glucosidase, Bacillus α-glucosidase, rat intestinal maltase α-glucosidase, almond β-glucosidase, bovine liver β-glucosidase, coffee beans α-galactosidase, bovine liver β-galactosidase, Jack bean α-mannosidase, snail β-mannosidase, Penicillium decumbens α-L-rhamnosidase, bovine kidney α-L-fucosidase, Eschierichia coli β-glucuronidase, bovine liver β-glucuronidase, porcine kidney trehalase, Aspergillus niger amyloglucosidase, and bovine kidney N-acetyl-β-glucosaminidase. The disease areas for each glycosidase are summarized in [1].
# The enzymes α-glucosidase (from yeast), β-glucosidases (from almond and bovine liver), α-galactosidase (from coffee beans), β-galactosidase (from bovine liver), α-mannosidase (from Jack bean), β-mannosidase (from snail), α-L-rhamnosidase (from Penicillium decumbens), α-L-fucosidase (from bovine kidney), trehalase (from porcine kidney), β-glucuronidases (from E. coli and bovine liver), amyloglucosidase (from A. niger), para-nitrophenyl glycosides, and various disaccharides were purchased from Sigma-Aldrich Co.
# Brush border membranes were prepared from the rat small intestine according to the method of Kessler et al. and were assayed at pH 6.8 for rat intestinal maltase using maltose. For rat intestinal maltase, porcine kidney trehalase, and A. niger amyloglucosidase activities, the reaction mixture contained 25 mM maltose and the appropriate amount of enzyme, and the incubations were performed for 10–30 min at 37 °C. The reaction was stopped by heating at 100 °C for 3 min. After centrifugation (600 g; 10 min), the resulting reaction mixture was added to the Glucose CII-test Wako (Wako Pure Chemical Ind., Osaka, Japan). The absorbance at 505 nm was measured to determine the amount of the released D-glucose. Other glycosidase activities were determined using an appropriate para-nitrophenyl glycoside as substrate at the optimum pH of each enzyme. The reaction mixture contained 2 mM of the substrate and the appropriate amount of enzyme. The reaction was stopped by the addition of 400 mM Na2CO3. The released para-nitrophenol was measured spectrometrically at 400 nm. All reactions run in methanol.
# [1] = tested on: A2780 (ovarian carcinoma); experiment: Cancer screening (MTT growth inhibition), A2780; assay type: cell-based; details: 72 h; for inhibition at 25 µM: A2780, 25 µM of drug, read-out: Percentage (%) cell growth inhibition; for inhibition at 25 µM / Percentage (%) cell growth inhibition: n = 3, mean ± SEM; for Percentage (%) cell growth inhibition: 25 µM of drug
# Description: (§1) All test agents were prepared as stock solutions (20 mM) in dimethyl sulfoxide (DMSO) and stored at −20 °C. Cell lines used in the study included: HT29 (colorectal carcinoma), U87 and SJ-G2 (glioblastoma), MCF-7 (breast carcinoma), A2780 (ovarian carcinoma), H460 (lung carcinoma), A431 (skin carcinoma), Du145 (prostate carcinoma), BE2-C (neuroblastoma), MiaPaCa-2 (pancreatic carcinoma), SMA560 (spontaneous murine astrocytoma), and ADDP (Cis Res Ovarian), together with one non-tumor-derived normal breast cell line (MCF10A). All cell lines were incubated in a humidified atmosphere with 5 % CO2 at 37 °C. The cancer cell lines were maintained in Dulbecco’s modified Eagle’s medium (DMEM; Sigma, Australia) supplemented with fetal bovine serum (10%), sodium pyruvate (10 mM), penicillin (100 IUmL^−1), streptomycin (100 µg mL^−1), and L-glutamine (2 mM).
# (§2) Growth inhibition was determined by plating cells in duplicate in medium (100 µL) at a density of 2500–4000 cells per well in 96-well plates. On day 0 (24 h after plating), when the cells are in logarithmic growth, medium (100 µL) with or without the test agent was added to each well. After 72 h of drug exposure, growth inhibitory effects were evaluated using the (3-(4,5-dimethyltiazol-2-yl)-2,5-diphenyltetrazolium bromide) (MTT) assay and absorbance read at 540 nm. The percentage growth inhibition was calculated at a fixed concentration of 25 µM, based on the difference between the optical density values on day 0 and those at the end of drug exposure. Each data point is the mean ± the standard error of the mean (SEM) calculated from three replicates, which were performed on separate occasions and in separate cell line passages.
# A431 (skin carcinoma) = experiment: Cancer screening (MTT growth inhibition), A431; assay type: cell-based; details: 72 h; for inhibition at 25 µM: A-431, 25 µM of drug, read-out: Percentage (%) cell growth inhibition; for inhibition at 25 µM / Percentage (%) cell growth inhibition: n = 3, mean ± SEM; for Percentage (%) cell growth inhibition: 25 µM of drug
# Description: as §1, §2
# [2] = at 100 μM, in methanol, read-out: inhibition %
# [3] = at 100 μM, read-out: NI: No inhibition
Compound,inhibition at 100 µM (Jack bean α-mannosidase; [2]) [%],inhibition at 100 µM (Jack bean α-mannosidase; [3]) [%],inhibition at 25 µM ([1]; Homo sapiens) [%],inhibition at 25 µM (A431 (skin carcinoma); Homo sapiens) [%],Percentage (%) cell growth inhibition [1] [%],Percentage (%) cell growth inhibition (A431 (skin carcinoma)) [%],also measured
"N[C@@H](Cc1ccc(B(O)O)cc1)C(=O)O [BPA, 4-borono-L-phenylalanine]",1.1,< 50,4 ± 1,4 ± 6,,,
"CC1(C)OCC(C2OC3OC(C)(C)OC3C2[B-]23OCC[NH+]2CCO3)O1 [Compound 6, 3-Deoxy-3-Boronodiethanolamine-1,2:5,6-Di-O-isopropylidene-α-D-galactofuranose]",0,< 50,10 ± 5,0,,,
"OCC1OC(O)C(O)C(B(O)O)C1O [Compound 7, 3-Boronic-3-Deoxy-D-galactose]",,,8 ± 3,3,,,"inhibition at 1000 µM (Jack bean α-mannosidase; at 1000 μM, in methanol, read-out: inhibition %): 0%; inhibition at 1000 µM (Jack bean α-mannosidase; at 1000 μM, read-out: NI: No inhibition): < 50%; GI50 ([1]; Homo sapiens, A2780, dose response, read-out: GI50 = Concentration that inhibits cell growth by 50%): > 50 µM; GI50 (A431 (skin carcinoma); Homo sapiens, A-431, dose response, read-out: GI50 = Concentration that inhibits cell growth by 50%): > 50 µM"
N[C@@H](Cc1ccc(B(O)O)cc1)C(=O)O [^10B-BPA],,,,,8 ± 4,4 ± 4,"NI: No inhibition (Jack bean α-mannosidase; at 100 μM): NI (No inhibition (less than 50% inhibition at 100 μM)); inhibition % (Jack bean α-mannosidase; at 100 μM, in methanol): 0%"
Borocaptate sodium [BSH],,,,,2 ± 5,<0,"NI: No inhibition (Jack bean α-mannosidase; at 1000 μM): NI (No inhibition (less than 50% inhibition at 1000 μM)); inhibition % (Jack bean α-mannosidase; at 1000 μM, in methanol): 7.9%"
